Numbers after ± are expanded uncertainties.
Experiments:
[1] = Crystal; DTA
[2] = Molar enthalpy of transition or fusion; settings: Crystal; DSC

## C[C@@H]1O[C@@H](O[C@H]2[C@H](Oc3cc(O)c(C(=O)CCc4ccc(O)cc4)c(O)c3)O[C@H](CO)[C@@H](O)[C@@H]2O)[C@H](O)[C@H](O)[C@H]1O [naringin dihydrochalcone]
[1]
  Normal melting temperature: 159.07 ± 0.53 °C
[2]
  Molar enthalpy of transition or fusion: 7.08 ± 0.454 kcal/mol

— the NIST ThermoML archive (doi:10.1021/acs.jced.6b00543)
